US20230218618A1, “ADMINISTRATION OF SUMO-ACTIVATING ENZYME INHIBITOR AND ANTI-CD38 ANTIBODIES” (MILLENNIUM PHARMACEUTICALS, INC., priority 2020, published 2023)

What was measured:
[1] = system: LP-1 human multiple myeloma cell line; experiment: Study 3: LP-1 xenograft human multiple myeloma subcutaneous tumor model; type: in vivo, CB17 SCID mice; details: for GRI%: vs vehicle
Protocol: (§1) Low tumor volumes can cause problems with the data analysis, so all measurements below 25 cubic mm (including 0 values) were excluded from the analysis. After this exclusion step, the tumor volume was assumed to follow an exponential growth model. More specifically, for a given animal and treatment group,
(§2) Pairwise comparisons were performed, where the mean growth rates were compared for various pairs of treatment conditions. The results were summarized using the growth rate inhibition (GRI). Suppose µT and µC are the mean tumor growth rates for the treatment and reference groups, respectively. Define
(§3) Here, µAB, µA, µB, and µControl are the mean growth rates for the combination, drug A, drug B, and control groups, respectively. As before, µv is the mean tumor growth rate for the vehicle group, which in most cases is the same as the control group. The standard error of the synergy score was calculated as the square root of the sum of squared standard errors across the four groups. The degrees of freedom were estimated using the Welch-Satterthwaite equation. A hypothesis test was performed to determine if the synergy score differed from 0. P-values were calculated by dividing the synergy score by its standard error and tested against a t-distribution (two-tailed) with the above-calculated degrees of freedom. A P value of less than 0.05 is statistically significant.
(§4) The combination results can be interpreted as follows. Statistically significant negative synergy scores indicate a synergistic combination (“Syn.”). Statistically significant positive synergy scores indicate a sub-additive combination (“Sub-add.”) when the combination performs better (i.e. has a lower growth rate) than the best performing single agent. Statistically significant positive synergy scores indicate an antagonistic combination (“Antag.”) when the combination performs worse than the best performing single agent. Scores that are not statistically significant should be considered additive (“Add.”).
LP-1 is a human multiple myeloma cell line. A LP-1 human xenograft tumor model was generated by subcutaneous inoculation with […] LP-1 cells (cell suspension) in 7 weeks old female CB17 SCID mice (Charles River Laboratories, 251 Ballardvale St., Wilmington, MA) in the flank. When the mean tumor volume reached approximately 100 mm^3, the animals were randomized into one vehicle control and seven treatment groups (n=8/group). Mice were then dosed with 20% HPβCD or Compound I-263a or daratumumab over a 35-day period. Tumor growth and body weight were measured twice per week during the treatment and post-treatment periods, and mice were humanely euthanized once they had reached their humane endpoint.
A 0.75 mg/mL stock solution of I-263a was formulated weekly in 20% HPβCD and administered IV based on an average body weight using a 0.2 mL dosing volume. Final dose I-263a received was 7.5 mg/kg. I-263a was administered on a BIW schedule for 5 weeks (Days 1, 4, 8, 11, 15, 18, 22, 25, 29 and 33). Daratumumab (anti-CD38 antibody) (Myoderm Medical Supplies, 48 E Main St., Norristown, PA 19401) was purchased at the beginning of the study and stored at 4° C. according to manufacturer’s instructions. Final dose daratumumab received was 2.5 mg/kg, 7.5 mg/kg, and 20 mg/kg based on average body weight. Daratumumab was administered intraperitoneally (IP) using a 0.1 mL dosing volume, on a BIW schedule for 5 weeks (Days 1, 4, 8, 11, 15, 18, 22, 25, 29 and 33).
(§5) Tumors were measured twice weekly using Vernier calipers. Tumor volumes were calculated using standard equation: V = W^2 × L/2, where V = volume, W = width, and L = length for the tumor. When mean tumor volumes reached approximately 100 mm^3, mice were randomized into control and treatment groups. Mice were randomized into 8 groups (n=8/group) and dosed with vehicle (20% HPβCD), I-263a, daratumumab, or the combination of I-263a plus daratumumab at doses and schedules as described above. […]

[2] = system: A20-hCD38 mouse B-cell lymphoma cell line engineered to express the human CD38 cell surface protein; experiment: Study 2: A20-hCD38 syngeneic mouse tumor model; type: in vivo, Balb/c mice; details: for GRI%: vs vehicle; for Tumor growth relative to vehicle-treated tumors (pairwise comparison): I-263a 7.5 mg/kg QW or 15 mg/kg Q2W, daratumumab 20 mg/kg BIW, or I-263a plus daratumumab, data up to Day 15, p < 0.001
Protocol: as §1, §2, §3, §4
A20-hCD38 is a mouse B-cell lymphoma cell line engineered to express the human CD38 cell surface protein. An A20-hCD38 syngeneic mouse tumor model was generated by subcutaneous inoculation with 5.0 × 10^6 cells (cell suspension) in 6 weeks old female Balb/c mice (Jackson Laboratory, 10 Discovery Dr., Farmington, CT) in the flank. When the mean tumor volume reached approximately 70 mm^3, the animals were randomized into one vehicle control and five treatment groups (n=8/group). Mice were dosed with 20% HPβCD or Compound I-263a or daratumumab over a 28-day period. Tumor growth and body weight were measured twice per week during the treatment and post-treatment periods, and mice were humanely euthanized once they had reached their humane endpoint.
A 1.575 mg/mL and a 0.788 mg/mL stock solution of I-263a was formulated weekly in 20% HPβCD and administered IV based on an average body weight using a 0.2 mL dosing volume. Final doses I-263a received were 15 mg/kg or 7.5 mg/kg, respectively. I-263a was administered on a QW or Q2W schedule for 4 weeks (Days 1, 8, 15, and 22). Daratumumab (anti-CD38 antibody) (Myoderm Medical Supplies, 48 E Main St., Norristown, PA 19401) was purchased at the beginning of the study and stored at 4° C. according to manufacturer’s instructions. Final dose daratumumab received was 20 mg/kg based on average body weight. Daratumumab was administered intraperitoneally (IP) using a 0.1 mL dosing volume, on a BIW schedule for 4 weeks (Days 1, 4, 8, 11, 15, 18, 22 and 25).
as §5, with “approximately 70” for “approximately 100”, “into 6” for “into 8”

[3] = I-263a 7.5 mg/kg BIW 5 weeks (p < 0.01), daratumumab 20 mg/kg (p < 0.01), I-263a 7.5 mg/kg BIW with daratumumab 2.5, 7.5 or 20 mg/kg (p < 0.001)

Compound | Tumor growth compared to vehicle treated mice (pairwise comparison) [1, 3] | Tumor volume on Day 17 (± SEM) ([1]; I-263a 7.5 mg/kg BIW IV) | GRI% ([1]; I-263a 7.5 mg/kg BIW IV) [%] | Tumor volume on Day 15 (± SEM) ([2]; I-263a 7.5 mg/kg QW IV) | GRI% ([2]; I-263a 7.5 mg/kg QW IV) [%] | Tumor growth relative to vehicle-treated tumors (pairwise comparison) [2] | Tumor volume on Day 15 (± SEM) ([2]; I-263a 15 mg/kg Q2W IV) | GRI% ([2]; I-263a 15 mg/kg Q2W IV) [%] | Tumor volume on Day 17 (± SEM) ([1]; Daratumumab 2.5 mg/kg BIW IP) | GRI% ([1]; Daratumumab 2.5 mg/kg BIW IP) [%] | Tumor volume on Day 17 (± SEM) ([1]; Daratumumab 7.5 mg/kg BIW IP) | GRI% ([1]; Daratumumab 7.5 mg/kg BIW IP) [%] | Tumor volume on Day 17 (± SEM) ([1]; Daratumumab 20 mg/kg BIW IP) | GRI% ([1]; Daratumumab 20 mg/kg BIW IP) [%] | Tumor growth compared to vehicle treated mice (pairwise comparison) ([1]; daratumumab 2.5 mg/kg or 7.5 mg/kg single agent, p > 0.05) | Tumor volume on Day 15 (± SEM) ([2]; Daratumumab 20 mg/kg BIW IP) | GRI% ([2]; Daratumumab 20 mg/kg BIW IP) [%]
Cc1sc(C(=O)c2cncnc2N[C@@H]2C[C@H](COS(N)(=O)=O)[C@@H](O)C2)cc1[C@@H]1NCCc2ccc(Cl)cc21 [Compound I-263a, [(1R,2S,4R)-4-{[5-({4-[(1R)-7-chloro-1,2,3,4-tetrahydroisoquinolin-1-yl]-5-methyl-2-thienyl}carbonyl)pyrimidin-4-yl]amino}-2-hydroxycyclopentyl]methyl sulfamate] | significant tumor growth inhibition | 1043.3 ± 260.1 | 15 | 613.1 ± 179.3 | 37 | significant tumor growth inhibition | 839.7 ± 229.7 | 24 |  |  |  |  |  |  |  |  | 
Daratumumab: immunoglobulin G1 kappa (IgG1κ) human monoclonal antibody against CD38 antigen | significant tumor growth inhibition |  |  |  |  | significant tumor growth inhibition |  |  | 988.8 ± 183.4 | 16 | 1204.8 ± 190.1 | 8 | 1078 ± 207.7 | 10 | not significantly different from vehicle treated mice | 1443.7 ± 276.4 | 3
